This passage reports IC50 and Ki results from ChEMBL document CHEMBL1909046, “DrugMatrix in vitro pharmacology data”.

Data set [1] concerns the target Sodium-dependent noradrenaline transporter (Homo sapiens, UniProt P23975). Briefly: DRUGMATRIX: Norepinephrine Transporter radioligand binding (ligand: [125I] RTI-55). The class given is cell membranes, MDCK, Membrane. The following applies: Not Active = under 50% inhibition at 10 µM.
Data set [2] has as its target T1, Alpha-1B adrenergic receptor (Rattus norvegicus, UniProt P15823).
T1 sequence (P15823 whole entry): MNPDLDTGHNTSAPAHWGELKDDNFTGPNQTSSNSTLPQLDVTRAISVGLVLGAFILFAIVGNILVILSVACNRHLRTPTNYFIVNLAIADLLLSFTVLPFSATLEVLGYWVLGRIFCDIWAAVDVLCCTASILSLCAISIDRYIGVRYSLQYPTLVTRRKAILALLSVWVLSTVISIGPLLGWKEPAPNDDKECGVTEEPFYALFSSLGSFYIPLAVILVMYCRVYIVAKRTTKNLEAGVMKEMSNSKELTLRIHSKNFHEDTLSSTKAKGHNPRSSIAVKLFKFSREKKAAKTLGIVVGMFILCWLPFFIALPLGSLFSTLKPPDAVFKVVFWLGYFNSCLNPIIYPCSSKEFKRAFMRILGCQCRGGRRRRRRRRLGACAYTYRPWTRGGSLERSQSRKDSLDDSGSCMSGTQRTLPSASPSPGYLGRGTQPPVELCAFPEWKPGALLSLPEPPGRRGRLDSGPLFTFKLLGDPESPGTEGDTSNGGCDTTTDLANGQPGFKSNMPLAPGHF
Briefly: DRUGMATRIX: Alpha-1B adrenergic receptor radioligand binding (ligand: prazosin). Format: cell membranes, Wistar, Liver, Membrane. The following applies: Not Active = under 50% inhibition at 10 µM.

Another data set has as its target Cytochrome P450 2C9 (Homo sapiens, UniProt P11712). The following applies: bti-tn-5b1-4. Note: in other assays of this panel Not Active means under 50% inhibition at 10 µM.
The next data set has as its target T2, Estrogen receptor (Homo sapiens, UniProt P03372). Note: in other assays of this panel Not Active means under 50% inhibition at 10 µM.
T2 sequence (P03372 whole entry): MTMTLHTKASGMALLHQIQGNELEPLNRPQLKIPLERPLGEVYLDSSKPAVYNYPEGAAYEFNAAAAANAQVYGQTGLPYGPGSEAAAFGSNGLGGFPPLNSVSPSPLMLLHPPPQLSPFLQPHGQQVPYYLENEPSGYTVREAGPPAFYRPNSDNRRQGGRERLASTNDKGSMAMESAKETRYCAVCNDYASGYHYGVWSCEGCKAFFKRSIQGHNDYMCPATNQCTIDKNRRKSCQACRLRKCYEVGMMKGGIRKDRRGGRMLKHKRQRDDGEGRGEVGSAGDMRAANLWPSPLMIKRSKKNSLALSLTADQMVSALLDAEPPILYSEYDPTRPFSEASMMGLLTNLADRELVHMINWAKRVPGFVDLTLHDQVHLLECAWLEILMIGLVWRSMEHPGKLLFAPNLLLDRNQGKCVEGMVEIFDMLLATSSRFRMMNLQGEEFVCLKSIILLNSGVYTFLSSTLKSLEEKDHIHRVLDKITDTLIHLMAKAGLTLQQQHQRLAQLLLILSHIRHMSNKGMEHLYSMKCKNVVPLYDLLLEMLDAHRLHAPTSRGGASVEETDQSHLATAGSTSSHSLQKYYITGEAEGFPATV
To be noted: sf9.

For the next data set, the target named is D(1A) dopamine receptor (Homo sapiens, UniProt P21728). Briefly: DRUGMATRIX: Dopamine D1 radioligand binding (ligand: [3H] SCH-23390). The class given is cell membranes, CHO, Membrane. To be noted: cho; Not Active = under 50% inhibition at 10 µM.
Chain of D(1A) dopamine receptor (P21728 whole entry): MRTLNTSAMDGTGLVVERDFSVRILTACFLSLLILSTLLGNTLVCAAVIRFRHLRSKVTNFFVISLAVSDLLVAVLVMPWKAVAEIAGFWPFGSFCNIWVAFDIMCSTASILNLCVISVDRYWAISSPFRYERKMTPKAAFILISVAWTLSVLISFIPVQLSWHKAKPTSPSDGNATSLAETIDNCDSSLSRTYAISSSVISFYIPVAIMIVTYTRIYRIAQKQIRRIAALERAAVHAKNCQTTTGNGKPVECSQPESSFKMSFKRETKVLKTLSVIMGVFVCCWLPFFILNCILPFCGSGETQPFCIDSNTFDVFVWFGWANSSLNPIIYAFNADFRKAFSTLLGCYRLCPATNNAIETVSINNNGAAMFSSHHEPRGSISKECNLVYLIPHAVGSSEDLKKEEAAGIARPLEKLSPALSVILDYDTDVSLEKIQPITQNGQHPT
The target in the next data set is T3, Glucocorticoid receptor (Homo sapiens, UniProt P04150). Note: in other assays of this panel Not Active means under 50% inhibition at 10 µM.
T3 sequence (P04150 whole entry): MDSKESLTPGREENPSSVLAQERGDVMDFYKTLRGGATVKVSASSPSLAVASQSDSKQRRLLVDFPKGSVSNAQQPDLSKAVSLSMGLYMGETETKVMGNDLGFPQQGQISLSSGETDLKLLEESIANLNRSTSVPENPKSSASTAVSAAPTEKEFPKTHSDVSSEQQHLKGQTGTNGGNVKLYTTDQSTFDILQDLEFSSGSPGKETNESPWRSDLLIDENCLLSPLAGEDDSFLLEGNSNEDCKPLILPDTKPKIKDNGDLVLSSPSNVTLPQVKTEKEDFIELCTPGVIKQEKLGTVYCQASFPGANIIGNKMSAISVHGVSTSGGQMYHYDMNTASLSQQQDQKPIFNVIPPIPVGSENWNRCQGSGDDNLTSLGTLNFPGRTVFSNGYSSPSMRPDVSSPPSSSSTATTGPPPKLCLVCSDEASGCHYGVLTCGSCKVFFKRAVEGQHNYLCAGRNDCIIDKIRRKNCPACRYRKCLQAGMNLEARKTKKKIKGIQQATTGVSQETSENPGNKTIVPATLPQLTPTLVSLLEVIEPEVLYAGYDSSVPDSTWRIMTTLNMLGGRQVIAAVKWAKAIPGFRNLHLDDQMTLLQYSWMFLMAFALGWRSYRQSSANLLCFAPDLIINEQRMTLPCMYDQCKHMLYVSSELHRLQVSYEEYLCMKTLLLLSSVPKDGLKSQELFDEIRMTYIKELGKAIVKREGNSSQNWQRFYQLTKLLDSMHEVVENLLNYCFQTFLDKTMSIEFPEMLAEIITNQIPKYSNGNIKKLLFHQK
The following applies: hela s3.

Another data set addresses Cytochrome P450 2D6 (Homo sapiens, UniProt P10635). The following applies: bti-tn-5b1-4.
In another data set the target is Cytochrome P450 3A4 (Homo sapiens, UniProt P08684). To be noted: bti-tn-5b1-4. Note: in other assays of this panel Not Active means under 50% inhibition at 10 µM.
Chain of Cytochrome P450 3A4 (P08684 whole entry): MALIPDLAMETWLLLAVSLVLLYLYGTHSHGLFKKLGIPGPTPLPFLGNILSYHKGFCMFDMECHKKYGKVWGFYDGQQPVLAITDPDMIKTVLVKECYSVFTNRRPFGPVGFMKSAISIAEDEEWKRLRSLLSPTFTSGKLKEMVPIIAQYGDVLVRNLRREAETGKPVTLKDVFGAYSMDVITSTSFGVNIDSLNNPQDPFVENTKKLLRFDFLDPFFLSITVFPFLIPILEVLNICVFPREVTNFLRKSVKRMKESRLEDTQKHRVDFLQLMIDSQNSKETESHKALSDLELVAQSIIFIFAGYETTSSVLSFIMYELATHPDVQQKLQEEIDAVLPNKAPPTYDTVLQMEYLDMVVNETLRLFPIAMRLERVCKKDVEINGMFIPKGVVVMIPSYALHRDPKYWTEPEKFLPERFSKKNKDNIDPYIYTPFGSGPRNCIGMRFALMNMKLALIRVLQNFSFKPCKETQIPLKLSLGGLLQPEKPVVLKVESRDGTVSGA

Chain of Cytochrome P450 2D6 (P10635 whole entry): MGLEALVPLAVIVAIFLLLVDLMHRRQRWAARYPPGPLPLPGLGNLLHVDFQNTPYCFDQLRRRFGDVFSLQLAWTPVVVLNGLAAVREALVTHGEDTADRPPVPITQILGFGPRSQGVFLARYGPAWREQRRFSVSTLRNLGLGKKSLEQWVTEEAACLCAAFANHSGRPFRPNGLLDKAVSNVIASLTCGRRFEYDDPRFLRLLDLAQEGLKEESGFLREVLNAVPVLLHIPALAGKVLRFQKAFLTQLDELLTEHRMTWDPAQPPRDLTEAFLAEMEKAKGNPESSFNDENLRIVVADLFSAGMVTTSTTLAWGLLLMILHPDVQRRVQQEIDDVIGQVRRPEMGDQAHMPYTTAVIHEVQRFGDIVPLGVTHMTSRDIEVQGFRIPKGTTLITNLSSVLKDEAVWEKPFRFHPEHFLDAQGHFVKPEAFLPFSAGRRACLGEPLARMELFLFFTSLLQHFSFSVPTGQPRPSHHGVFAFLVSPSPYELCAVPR
Chain of Sodium-dependent noradrenaline transporter (P23975 whole entry): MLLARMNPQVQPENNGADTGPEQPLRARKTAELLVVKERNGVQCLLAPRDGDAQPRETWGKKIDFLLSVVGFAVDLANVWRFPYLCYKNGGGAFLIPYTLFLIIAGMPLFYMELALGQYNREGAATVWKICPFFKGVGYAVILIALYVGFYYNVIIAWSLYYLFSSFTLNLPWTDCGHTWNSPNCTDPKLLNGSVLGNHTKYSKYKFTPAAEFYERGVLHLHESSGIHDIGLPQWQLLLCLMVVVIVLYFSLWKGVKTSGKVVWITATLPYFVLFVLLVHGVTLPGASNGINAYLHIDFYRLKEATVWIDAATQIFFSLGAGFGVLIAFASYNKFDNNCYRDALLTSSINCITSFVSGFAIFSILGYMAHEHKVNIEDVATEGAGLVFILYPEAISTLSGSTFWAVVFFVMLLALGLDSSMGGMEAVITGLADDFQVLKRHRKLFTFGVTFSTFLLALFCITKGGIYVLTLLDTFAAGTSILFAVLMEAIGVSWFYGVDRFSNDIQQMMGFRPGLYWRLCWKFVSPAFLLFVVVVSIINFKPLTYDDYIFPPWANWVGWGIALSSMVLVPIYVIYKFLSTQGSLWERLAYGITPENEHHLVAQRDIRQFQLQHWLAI
Chain of Cytochrome P450 2C9 (P11712 whole entry): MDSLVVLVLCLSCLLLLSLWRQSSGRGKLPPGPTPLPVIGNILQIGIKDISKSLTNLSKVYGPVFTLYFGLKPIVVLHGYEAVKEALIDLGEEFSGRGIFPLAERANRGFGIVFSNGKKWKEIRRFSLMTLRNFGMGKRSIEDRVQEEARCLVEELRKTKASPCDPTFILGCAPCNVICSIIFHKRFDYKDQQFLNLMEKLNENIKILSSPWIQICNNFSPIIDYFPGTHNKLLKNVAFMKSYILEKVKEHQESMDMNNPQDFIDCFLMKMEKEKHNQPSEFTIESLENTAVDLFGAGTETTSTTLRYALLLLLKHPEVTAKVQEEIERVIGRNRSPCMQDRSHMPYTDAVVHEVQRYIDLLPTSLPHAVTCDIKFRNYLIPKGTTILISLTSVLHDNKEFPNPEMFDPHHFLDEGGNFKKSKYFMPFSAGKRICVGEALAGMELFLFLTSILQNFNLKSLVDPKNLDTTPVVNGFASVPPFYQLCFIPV

One may read the IC50 as the midpoint of a concentration-inhibition curve. The term Ki denotes the dissociation constant of the complex between target and ligand, obtained from inhibition or displacement. Consider `CC[C@H](C)[C@@H](CO[C@@H](Cc1ccccc1)C(=O)N[C@@H](CCS(C)(=O)=O)C(=O)OC(C)C)NC[C@@H](N)CS`, for which the concentration for half-maximal inhibition (IC50) result (in data set [1] (mdck); in data set [2]; on Cytochrome P450 2C9; at Estrogen receptor; on D(1A) dopamine receptor; against Glucocorticoid receptor) was “Not Active” each time. The Ki entry at Cytochrome P450 2C9 is given as “Not Active”.
For the molecule `CCOC(=O)C1=C(C)NC(C)=C(C(=O)OCC)C1c1ccccc1/C=C/C(=O)OC(C)(C)C` [LACIDIPINE], the IC50 in data set [1] (read-out: IC50) is 5.73 µM; against Cytochrome P450 2D6, “Not Active”; in data set [2], “Not Active”; against Estrogen receptor it was “Not Active”; on D(1A) dopamine receptor, “Not Active”; against Glucocorticoid receptor it was “Not Active”. For the same molecule, the inhibitory constant (Ki) in data set [1] (read-out: Ki) was 5.69 µM; at Cytochrome P450 2D6 it was “Not Active”.
For `CC(C)(C)NC[C@H](O)COc1cccc2c1CCCC2=O` [LEVOBUNOLOL], the IC50 result (in data set [1] (mdck); against Cytochrome P450 2D6; in data set [2]; at Cytochrome P450 2C9; at Estrogen receptor; at D(1A) dopamine receptor) was “Not Active” each time. Further, the 50% inhibitory concentration (IC50) result on Glucocorticoid receptor and at Cytochrome P450 3A4 was “Not Active” in each case. Besides, the inhibition constant (Ki) entry at Cytochrome P450 2D6, on Cytochrome P450 2C9 and at Cytochrome P450 3A4 was “Not Active” throughout.
With `COC(=O)Nc1nc2ccc(C(=O)c3ccccc3)cc2[nH]1` [MEBENDAZOLE], the half-inhibitory concentration (IC50) entry (in data set [1] (mdck); against Cytochrome P450 2D6; in data set [2]; against Cytochrome P450 2C9; at Estrogen receptor; on D(1A) dopamine receptor) was “Not Active” each time. For the same molecule, the IC50 entry on Glucocorticoid receptor and on Cytochrome P450 3A4 was “Not Active” throughout. Besides, the inhibition constant Ki result at Cytochrome P450 2D6, on Cytochrome P450 2C9 and on Cytochrome P450 3A4 was “Not Active” throughout.
`Cc1ccc(Cl)c(Nc2ccccc2C(=O)O)c1Cl` [MECLOFENAMIC ACID]: the half-inhibitory concentration (IC50) entry (in data set [1] (mdck); at Cytochrome P450 2D6; in data set [2]; at Cytochrome P450 2C9; against Estrogen receptor; at D(1A) dopamine receptor) was “Not Active” in each case. The half-inhibitory concentration (IC50) entry against Glucocorticoid receptor and against Cytochrome P450 3A4 was “Not Active” throughout. Besides, the inhibition constant (Ki) result at Cytochrome P450 2D6, on Cytochrome P450 2C9 and at Cytochrome P450 3A4 was “Not Active” throughout.
On to `Cc1cnc(NC(=O)C2=C(O)c3ccccc3S(=O)(=O)N2C)s1` [MELOXICAM], for which the IC50 entry (in data set [1] (mdck); on Cytochrome P450 2D6; in data set [2]; against Cytochrome P450 2C9; on Estrogen receptor; on D(1A) dopamine receptor) was “Not Active” throughout. The half-inhibitory concentration (IC50) entry on Glucocorticoid receptor and against Cytochrome P450 3A4 was “Not Active” throughout. The Ki result on Cytochrome P450 2D6, at Cytochrome P450 2C9 and at Cytochrome P450 3A4 was “Not Active” in each case.
`CC[C@H](C)C(=O)O[C@H]1CCC=C2C=C[C@H](C)[C@H](CC[C@@H]3C[C@@H](O)CC(=O)O3)[C@H]21` [MEVASTATIN]: the half-inhibitory concentration (IC50) entry (in data set [1] (mdck); against Cytochrome P450 2D6; in data set [2]; at Cytochrome P450 2C9; at Estrogen receptor; at D(1A) dopamine receptor) was “Not Active” each time. For the same molecule, the IC50 result on Glucocorticoid receptor and on Cytochrome P450 3A4 was “Not Active” each time. Further, the Ki result at Cytochrome P450 2D6, at Cytochrome P450 2C9 and on Cytochrome P450 3A4 was “Not Active” in each case.
With `CCOc1cc(N)c(Cl)cc1C(=O)NCC1CN(Cc2ccc(F)cc2)CCO1` (centres undefined) [MOSAPRIDE], the 50% inhibitory concentration (IC50) result (in data set [1] (mdck); at Cytochrome P450 2D6; in data set [2]; on Estrogen receptor; on D(1A) dopamine receptor; against Glucocorticoid receptor) was “Not Active” in each case. Further, the inhibition constant (Ki) entry at Cytochrome P450 2D6 is reported as “Not Active”.
With `CC(N)C12CC3CC(CC(C3)C1)C2` (centres undefined) [RIMANTADINE], the IC50 entry (in data set [1] (mdck); against Cytochrome P450 2D6; in data set [2]; at Cytochrome P450 2C9; on Estrogen receptor; at D(1A) dopamine receptor) was “Not Active” in each case. The IC50 result against Glucocorticoid receptor and against Cytochrome P450 3A4 was “Not Active” each time. Further, the Ki result at Cytochrome P450 2D6, at Cytochrome P450 2C9 and on Cytochrome P450 3A4 was “Not Active” each time.
For `O=[As][O-].[Na+]` [SODIUM ARSENITE], the IC50 entry (in data set [1] (mdck); on Cytochrome P450 2D6; in data set [2]; against Cytochrome P450 2C9; against Estrogen receptor; at D(1A) dopamine receptor) was “Not Active” in each case. The IC50 result against Glucocorticoid receptor and on Cytochrome P450 3A4 was “Not Active” each time. Moreover, the Ki entry on Cytochrome P450 2D6, on Cytochrome P450 2C9 and on Cytochrome P450 3A4 was “Not Active” in each case.
Turning to `CC1(C)[C@H](C(=O)O)N2C(=O)C[C@H]2S1(=O)=O` [SULBACTAM], the concentration for half-maximal inhibition (IC50) entry (in data set [1] (mdck); against Cytochrome P450 2D6; in data set [2]; against Cytochrome P450 2C9; against Estrogen receptor; at D(1A) dopamine receptor) was “Not Active” in each case. Moreover, the 50% inhibitory concentration (IC50) result against Glucocorticoid receptor and at Cytochrome P450 3A4 was “Not Active” in each case. The inhibition constant Ki entry at Cytochrome P450 2D6, on Cytochrome P450 2C9 and on Cytochrome P450 3A4 was “Not Active” each time.
Consider `Cc1ccnc(NS(=O)(=O)c2ccc(N)cc2)n1` [SULFAMERAZINE], for which the IC50 result (in data set [1] (mdck); on Cytochrome P450 2D6; in data set [2]; at Cytochrome P450 2C9; at Estrogen receptor; on D(1A) dopamine receptor) was “Not Active” in each case. Also, the IC50 entry at Glucocorticoid receptor and on Cytochrome P450 3A4 was “Not Active” in each case. The Ki entry on Cytochrome P450 2D6, on Cytochrome P450 2C9 and at Cytochrome P450 3A4 was “Not Active” in each case.
Consider `CC[C@@]1(O)C(=O)OCc2c1cc1n(c2=O)Cc2cc3c(CN(C)C)c(O)ccc3nc2-1` [TOPOTECAN], for which the IC50 entry (in data set [1] (mdck); on Cytochrome P450 2D6; in data set [2]; against Cytochrome P450 2C9; against Estrogen receptor; at D(1A) dopamine receptor) was “Not Active” throughout. Besides, the 50% inhibitory concentration (IC50) result on Glucocorticoid receptor was “Not Active”. Besides, the Ki result on Cytochrome P450 2D6 and at Cytochrome P450 2C9 was “Not Active” throughout.
With `CN1C(=O)OC(C)(C)C1=O` [TRIMETHADIONE], the IC50 result (in data set [1] (mdck); on Cytochrome P450 2D6; in data set [2]; at Estrogen receptor; on D(1A) dopamine receptor; against Glucocorticoid receptor) was “Not Active” throughout. The concentration for half-maximal inhibition (IC50) result against Cytochrome P450 3A4 was “Not Active”. The Ki entry at Cytochrome P450 2D6 and at Cytochrome P450 3A4 was “Not Active” each time.
